Article PMC5986654, “Combined HAT/EZH2 modulation leads to cancer-selective cell death” (Oncotarget, 2018)

Tests used:
[1] = Stability of MC2884 in cell culture medium (RP-HPLC); format: physicochemical
Experimental: The compound was dissolved in DMEM at 50 µM and its concentration was measured by RP-HPLC using a ONYX 50 × 2 mm ID C18 column operating at 600 µL/min. The gradient applied was from 1% solvent B to 70% solvent B in 10 minutes. Solvent A was water with added 0.1% trifluoroacetic acid (TFA) and solvent B was acetonitrile with added 0.1% TFA. The eluate was monitored using a diode array detector with wavelengths set between 200–320 nm. The compound was eluted at 11.1 min. Peak integration was carried out on the chromatogram extracted at […], which is one of the compound absorbance maxima. A calibration curve was built by injecting solutions of the compound in DMSO at concentrations ranging between 1.5 µM and 200 µM. After incubation in DMEM compound concentration was determined at time points ranging between 0 and 72 hrs. As shown, half of compound was degraded after 10 h. At 72 hrs it was fully degraded under these conditions.

CYP2C9 = biological target: T1, CYP2C9 (Homo sapiens, UniProt P11712); experiment: Cytochrome P450 inhibition, CYP2C9; format: in vitro ADME; conditions: human liver microsomes, probe tolbutamide
T1 construct: from tissue; host or cells: human liver microsomes
T1 sequence (P11712 whole entry): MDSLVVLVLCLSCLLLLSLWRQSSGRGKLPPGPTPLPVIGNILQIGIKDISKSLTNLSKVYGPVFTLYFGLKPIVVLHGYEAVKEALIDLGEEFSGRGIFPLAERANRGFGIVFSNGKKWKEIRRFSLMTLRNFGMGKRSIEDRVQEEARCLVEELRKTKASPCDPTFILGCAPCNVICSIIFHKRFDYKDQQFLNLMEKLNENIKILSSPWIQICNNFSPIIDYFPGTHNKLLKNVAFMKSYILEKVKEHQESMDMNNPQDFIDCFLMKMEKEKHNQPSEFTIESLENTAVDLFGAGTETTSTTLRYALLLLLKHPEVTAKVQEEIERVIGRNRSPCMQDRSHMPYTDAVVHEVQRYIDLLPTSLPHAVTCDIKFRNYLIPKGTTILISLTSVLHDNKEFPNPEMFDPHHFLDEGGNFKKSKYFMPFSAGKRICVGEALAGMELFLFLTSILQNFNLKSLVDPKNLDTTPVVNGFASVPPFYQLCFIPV
Experimental: This provided a dose of 2 mg free base material/kg when Cytochrome p450 inhibition (5 isoform iC50 administered iv in a 5 mL/kg dosing volume. determination) mouse terminal ip pK study ADME-Tox Cytochrome P450 inhibition of Compound MC2884 was given ip at a dose of 2 mg/kg MC2884 using human liver microsomes as an estimation to a group of 24 normally fed male CD1 mice in a 10 mL/ of in vitro metabolism. kg injection volume. Terminal blood samples (> 230 μL) MC2884 (0.1 μM–25 μM) was incubated with were taken under CO2 from groups of 3 mice at each of 8 human liver microsomes and NADPH in the presence time-points post dose (0.083, 0.25, 0.5, 1, 2, 4, 8 and 24 h) of a cytochrome P450 isoform-specific probe substrate. and placed into heparinized tubes. […]
All samples were stored at −20° C measuring the formation of a fluorescent metabolite. […]
Cyp2C19 inhibition (0.1 mg/mL) and NADPH (1 mM) in the presence of the probe substrate midazolam (2.5 μM) for 5 min at Six test compound samples at concentrations 37° C. […] For the CYP1A incubations, the reactions microsomes (0.5 mg/mL) and NADPH (1 mM) in the were terminated by methanol, and the formation of the presence of the probe substrate mephenytoin (25 μM) metabolite, resorufin, was monitored by fluorescence for 60 min at 37° C. […]

KAT5 = KAT5 (Homo sapiens, UniProt Q92993); experiment: HAT in vitro assay, 10-dose IC50, KAT5; format: biochemical; conditions: substrate Histone H2A, 3 μM Acetyl-CoA; read-out: Compound IC50 KAT5
Chain of KAT5 (Q92993 whole entry): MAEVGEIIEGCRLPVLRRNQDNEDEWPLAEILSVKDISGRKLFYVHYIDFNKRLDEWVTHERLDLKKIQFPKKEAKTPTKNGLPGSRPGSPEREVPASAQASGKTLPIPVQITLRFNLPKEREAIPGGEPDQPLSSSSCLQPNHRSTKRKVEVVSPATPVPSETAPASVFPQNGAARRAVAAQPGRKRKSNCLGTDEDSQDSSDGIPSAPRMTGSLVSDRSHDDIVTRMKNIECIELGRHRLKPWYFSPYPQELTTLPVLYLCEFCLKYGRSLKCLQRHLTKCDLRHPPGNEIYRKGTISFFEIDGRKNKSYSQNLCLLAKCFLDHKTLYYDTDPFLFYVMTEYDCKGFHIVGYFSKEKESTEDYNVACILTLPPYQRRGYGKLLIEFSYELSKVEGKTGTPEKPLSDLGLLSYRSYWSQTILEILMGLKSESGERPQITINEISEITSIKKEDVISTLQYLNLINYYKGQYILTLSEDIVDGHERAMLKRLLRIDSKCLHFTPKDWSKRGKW
Experimental: For HAT in vitro assay, MC2884 activity was also tested in vitro and IC50 was calculated as indicated in the scheme. […] Reactions were carried out at 3 μM Acetyl-CoA. Empty cells indicate no inhibition or compound activity that could not be fit to an IC50 curve.

## O=C1/C(=C/c2cccc(Br)c2)CN(Cc2ccccc2)C/C1=C\c1cccc(Br)c1 [MC2884]
[1]; DMEM cell culture medium, read-out: half-life in cell culture media (converted)
  half-life at 50 µM: 10 h
[1]; DMEM, 50 µM
  time for total degradation in cell culture media: 72 h
CYP2C9
  IC50: > 25 µM
KAT5
  IC50: 0.835 µM
